Data as given in PubChem BioAssay AID687029 (Broad Institute, 2013).

System: RMG-1 viability, CellTiterGlo ATP luminescence, 96 h
Experiment: cytotoxicity in PAX8-dependent RMG-1 cells, dose response, cell-based, cherry-pick (AID 687029)

Compound | AC50
Cn1c(SCC(=O)c2ccccc2)nnc1-c1ccccn1 | 1.42 µM
C=C(C)c1nc(Oc2ccccc2)nc(Oc2ccccc2)n1 | < 0.26 µM
C[C@@H]1O[C@@H](O[C@@H]2C=C3CC[C@@H]4C(CC[C@]5(C)[C@@H](c6ccc(=O)oc6)CC[C@]45O)[C@@]3(C)CC2)[C@H](O)[C@H](O)[C@H]1O (stereo partly drawn) | < 0.26 µM
CN1c2ccccc2N(C)C1(C)c1ccccc1 | < 0.26 µM
COc1ccc(NC(=O)c2c(Nc3ccccc3)sc(C(=O)c3ccc(F)cc3)c2N)cc1 | < 1 µM
CN(C(=O)OC(C)(C)C)c1ccc(-c2nc3ccccc3s2)cc1 | < 0.26 µM
CCCC1=Nc2cc(C(=O)NCCCOCC)ccc2Sc2ccccc21 | < 0.26 µM
C[C@@H]1CCCCO[C@@H](CN(C)C(=O)Nc2cccc3ccccc23)[C@H](C)CN([C@H](C)CO)C(=O)c2cc(NS(=O)(=O)c3ccc(F)cc3)ccc2O1 | < 0.26 µM
O=C(c1cc([N+](=O)[O-])ccc1N1CCOCC1)N1CCN(c2ccccc2)CC1 | < 0.26 µM
C[C@@H]1CN([C@@H](C)CO)C(=O)Cc2cc(NS(=O)(=O)c3ccc(Cl)cc3)ccc2O[C@H]1CN(C)Cc1ccc(Oc2ccccc2)cc1 | < 0.26 µM
O=C1c2cccc3cc([N+](=O)[O-])cc(c23)C(=O)N1CCN1CCCC1 | < 0.26 µM
Cc1ccsc1/C=N/Nc1cccc(C(=O)O)c1 | 13.2 µM
O=C(NC1CCCCC1)C(c1cccnc1)N(C(=O)CCl)c1ccc(F)cc1 (stereo not drawn) | 9.95 µM
C[C@H](CO)N1C[C@H](C)[C@H](CN(C)S(=O)(=O)c2ccc(Cl)cc2)OCCCC[C@H](C)Oc2ccc(NS(=O)(=O)c3ccc(F)cc3)cc2C1=O | < 0.26 µM
C[C@]12CCC3C(CCC4=CC(O)CC[C@@]43/C=N/O)C1(O)CCC2C1=CC(=O)OC1 (stereo partly drawn) | < 0.26 µM
Cc1cnc(NC(=O)c2ccc3c(c2)OCCO3)s1 | < 0.26 µM
FC(F)(F)c1nnc2c(Sc3ccccn3)nc3ccccc3n12 | 14.2 µM
CCCn1c(C)cc(C(=O)CN2C(=O)c3ccccc3S2(=O)=O)c1C | < 0.26 µM
COc1cc(C=C2C(=O)C=CC2=O)ccc1O | < 0.26 µM
c1cc2c(cc1C1=NNC(=NC3CC3)SC1)OCCO2 | < 0.26 µM
COc1ccc(NC(=O)Nc2ccc3c(c2)C(=O)N([C@@H](C)CO)C[C@@H](C)[C@@H](CN(C)CC2CCCCC2)OCCCC[C@@H](C)O3)cc1 | < 0.26 µM
COc1cccc(-c2ccc([C@H]3[C@@H](CO)N(C(=O)Cc4ccccc4)[C@H]3C#N)cc2)c1 | < 0.26 µM
C#CCN(C[C@@H]1[C@@H](OC(=O)NCc2ccccc2F)[C@@H](OC(=O)NCc2ccccc2F)Cn2c(=O)ccc(=O)n21)S(=O)(=O)c1ccc(C)cc1 | < 0.26 µM
O=S(=O)(NCC1CCCO1)c1cnc(Cl)c(Br)c1 (stereo not drawn) | < 0.26 µM

Compound | AC50
Cc1ccc(Cl)cc1N1CCN(C(=O)c2noc(C)c2[N+](=O)[O-])CC1 | < 0.26 µM
CCC(C)(O)C(=O)OC1C(=O)OC2CC3C(C)=CC(=O)C(O)C3(C)C3C4(O)OCC23C1C(C)C4O (stereo not drawn) | 19.7 µM
COc1ccc(C)cc1NS(=O)(=O)c1ccc(-c2cnc(C3CC3)o2)cc1 | 0.376 µM
Brc1ccc(-n2cc(-c3ccccc3)c3c(NN4CCOCC4)ncnc32)cc1 | < 0.26 µM
S=c1sc2c(Cl)ncnc2n1-c1ccccc1 | < 0.26 µM
O=C(Nc1ccc(OCC(F)(F)C(F)F)c(C(F)(F)F)c1)c1ccccc1O | < 0.26 µM
Cc1ccc(NC(=O)Cn2ncc(Cl)c(Cl)c2=O)cc1S(=O)(=O)N1CCCCC1 | < 0.26 µM
COc1cc(OC)c2c(-c3cccc(-c4ccc(OC)c(F)c4)c3)cc(=O)oc2c1 | 11.4 µM
Cn1ncc2c(O/N=C(\N)c3ccc(C(F)(F)F)cc3)ncnc21 | < 0.26 µM
COc1cc2nc(C3CCC3)nc(N3CCN(c4ccccc4OC)CC3)c2cc1OC | < 0.26 µM
CCOc1ccc(NC(=O)Nc2cc(OCC(F)(F)F)cc(OCC(F)(F)F)c2)cc1 | 9.37 µM
Cc1ccccc1CNC(=O)C1CCCN(c2nnc(C)c3c(C)n(-c4ccccc4)nc23)C1 (stereo not drawn) | < 0.26 µM
C[C@@H]1CCCCO[C@H](CN(C)Cc2ccc(C(F)(F)F)cc2)[C@H](C)CN([C@H](C)CO)C(=O)c2cc(NS(=O)(=O)c3cccs3)ccc2O1 | < 0.26 µM
OCCCNc1nccc(-c2cc(Nc3cccc(Cl)c3)ncn2)n1 | < 0.26 µM
CC(C)(C)[C@H](N)C(=O)N[C@H]1CCC2C3CC=C4C[C@@H](O)CC[C@]4(C)C3CC[C@@]21C (stereo partly drawn) | < 0.26 µM
COc1ccc(CCNc2nnc(Sc3nnnn3-c3ccccc3)s2)cc1OC | 13 µM
C[C@]12CC[C@H]3[C@@H](CC[C@]4(O)C[C@@H](O)CC[C@]34C=O)[C@@]1(O)CC[C@@H]2C1=CC(=O)OC1 | < 0.26 µM
C#CCN(C[C@@H]1[C@@H](OC(=O)NCC2CCCCC2)[C@@H](OC(=O)NCC2CCCCC2)Cn2c(=O)ccc(=O)n21)S(=O)(=O)c1ccc(C)cc1 | < 0.26 µM
COc1cccc(CC(=O)Nc2nc3c(s2)C(=O)CC(C)(C)C3)c1 | < 0.26 µM
O=C(NC12CC3CC(CC(C3)C1)C2)c1ccc([N+](=O)[O-])o1 | < 0.26 µM
O=C(Nc1ccc(N2CCN(C(=O)c3ccccc3)CC2)cc1)c1ccc([N+](=O)[O-])o1 | < 0.26 µM
CCOC(=O)Nc1ccc2c(c1)N(C(=O)CCN(CC)CC)c1ccccc1S2=O (stereo not drawn) | < 0.26 µM
COc1ccc(S(=O)(=O)Nc2ccc3c(c2)C(=O)N([C@@H](C)CO)C[C@H](C)[C@@H](CN(C)Cc2ccc(C(F)(F)F)cc2)OCCCC[C@H](C)O3)cc1 | 0.372 µM
C=C1C(=O)C2=CC1CCC(=O)C1(C)CCC(OC(C)=O)C(C)(C)C1CC2O (stereo not drawn) | < 0.26 µM
